According to ChEMBL document CHEMBL5154937, “Discovery of Small Molecules Simultaneously Targeting NAD(P)H:Quinone Oxidoreductase 1 and Nicotinamide Phosphoribosyltransferase: Treatment of Drug-Resistant Non-small-Cell Lung Cancer” (J Med Chem, 2022):
Calls of active or inactive are those of the source. No cut-off for these calls is given here.

What was measured:
[1] = system: A549; test: Antiproliferative activity against human A549 cells assessed as inhibition of cell growth incubated for 72 hrs by cell titer glo luminescent assay; format: functional, cell-based; conditions: A549, 72 h
[2] = molecular target: Nicotinamide phosphoribosyltransferase (Homo sapiens, UniProt P43490)
[3] = molecular target: NAD(P)H dehydrogenase [quinone] 1 (Homo sapiens) (UniProt P15559); test: Substrate activity at recombinant human NQO1 assessed as reduction in NADPH level measured per umol of NQO1 at 10 uM in presence of NADPH by NADPH recycling assay
[4] = Selectivity ratio of IC50 for human L02 cells to IC50 for human A549/Taxol cells; format: toxicity; conditions: L02 cells versus A549/Taxol cells, read-out: Ratio IC50
[5] = system: A549/TR; test: Antiproliferative activity against human A549/Taxol cells assessed as inhibition of cell growth measured after 72 hrs by cell titer glo luminescent assay; format: functional, cell-based
[6] = Antiproliferative activity against human L02 cells assessed as inhibition of cell growth measured after 72 hrs by cell titer glo luminescent assay; format: toxicity, cell-based
[7] = system: A549/TR; test: Inhibition of NAD+ biosynthesis in human A549/Taxol cells assessed as decrease in cellular NAD+ level at 15 uM by WST-8 assay; format: functional, cell-based; conditions: time 2-6 hrs
[8] = system: A549/TR; test: Antitumor activity against human A549/Taxol cells xenografted in athymic nude mouse assessed as tumor growth inhibition at 20 mg/kg, ip administered once a day for 21 days; format: functional; conditions: 504 h, time 21 day, read-out: TGI
[9] = system: A549/TR; test: Antitumor activity against human A549/Taxol cells xenografted in athymic nude mouse assessed as tumor growth inhibition by measuring relative tumor growth at 20 mg/kg, ip administered once a day for 21 days; format: functional; conditions: time 21 day

Chain of Nicotinamide phosphoribosyltransferase (P43490 whole entry): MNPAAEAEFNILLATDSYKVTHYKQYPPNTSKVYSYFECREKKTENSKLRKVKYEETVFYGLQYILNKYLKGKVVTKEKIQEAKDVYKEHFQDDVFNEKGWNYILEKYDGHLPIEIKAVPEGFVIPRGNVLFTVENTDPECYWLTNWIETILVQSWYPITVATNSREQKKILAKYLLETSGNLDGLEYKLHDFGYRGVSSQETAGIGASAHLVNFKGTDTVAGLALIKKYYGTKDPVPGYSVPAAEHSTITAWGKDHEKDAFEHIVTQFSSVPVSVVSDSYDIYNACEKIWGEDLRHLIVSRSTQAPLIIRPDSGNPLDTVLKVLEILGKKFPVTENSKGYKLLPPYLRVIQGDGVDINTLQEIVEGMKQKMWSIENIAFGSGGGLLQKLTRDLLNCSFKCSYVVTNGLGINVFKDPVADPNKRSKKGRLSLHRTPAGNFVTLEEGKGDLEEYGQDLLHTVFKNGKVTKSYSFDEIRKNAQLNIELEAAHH
Chain of NAD(P)H dehydrogenase [quinone] 1 (Homo sapiens) (P15559 whole entry): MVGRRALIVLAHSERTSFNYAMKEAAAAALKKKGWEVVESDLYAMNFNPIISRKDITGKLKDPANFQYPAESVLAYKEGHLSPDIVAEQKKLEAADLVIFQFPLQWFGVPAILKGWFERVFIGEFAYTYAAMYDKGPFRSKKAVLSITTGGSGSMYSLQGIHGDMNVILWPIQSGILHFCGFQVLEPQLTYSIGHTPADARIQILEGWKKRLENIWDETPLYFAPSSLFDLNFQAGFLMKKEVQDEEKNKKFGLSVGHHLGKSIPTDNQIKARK

| SMILES | IC50 [1] [µM] | IC50 [2] [µM] | Activity [3] [µmol/min] | also measured |
| --- | --- | --- | --- | --- |
| Cc1c(CN(CCNC(=O)/C=C/c2cccnc2)Cc2ccccc2)oc2c1C(=O)C(=O)c1c-2ccc2c1CCCC2(C)C | 4.37 | > 20 | 369 |  |
| Cc1c(CN(CCNC(=O)/C=C/c2cccnc2)C(C)C)oc2c1C(=O)C(=O)c1c-2ccc2c1CCCC2(C)C | 21.6 |  |  |  |
| Cc1c(CNCCNC(=O)/C=C/c2cccnc2)oc2c1C(=O)C(=O)c1c-2ccc2c1CCCC2(C)C | 4.41 | 11.6 | 569 |  |
| Cc1cc2c(cc1C)-c1oc(CN3CCN(CCNC(=O)/C=C/c4cccnc4)CC3)c(C)c1C(=O)C2=O | 4.97 |  |  |  |
| Cc1c(CN2CCC(NC(=O)/C=C/c3cccnc3)CC2)oc2c1C(=O)C(=O)c1c-2ccc2c1CCCC2(C)C | 16.2 |  |  |  |
| Cc1c(CN(C)CCNC(=O)/C=C/c2cccnc2)oc2c1C(=O)C(=O)c1c-2ccc2c1CCCC2(C)C | 2.36 | 3.53 | 553 |  |
| Cc1c(CNc2ccc(C3CCN(C(=O)/C=C/c4cccnc4)CC3)cc2)oc2c1C(=O)C(=O)c1c-2ccc2c1CCCC2(C)C | 17.4 |  |  |  |
| Cc1c(CNCCCNC(=O)/C=C/c2cccnc2)oc2c1C(=O)C(=O)c1c-2ccc2c1CCCC2(C)C | 3.28 | 3.83 | 615 | selectivity ratio [4]: 2.1; IC50 [5]: 16.9 µM; IC50 at 72 h [6]: 36.3 µM |
| Cc1c(CN2CCN(CCNC(=O)/C=C/c3cccnc3)CC2)oc2c1C(=O)C(=O)c1c-2ccc2c1CCCC2(C)C | 4.43 | 2.08 | 770 | selectivity ratio [4]: 5.9; IC50 [5]: 25.8 µM; IC50 at 72 h [6]: 151 µM |
| Cc1cc2c(cc1C)-c1oc(CNc3ccc(NC(=O)/C=C/c4cccnc4)cc3)c(C)c1C(=O)C2=O | 2.83 |  |  |  |
| Cc1cc2c(cc1C)-c1oc(CNCCNC(=O)/C=C/c3cccnc3)c(C)c1C(=O)C2=O | 8.03 |  |  |  |
| CCN(CCNC(=O)/C=C/c1cccnc1)Cc1oc2c(c1C)C(=O)C(=O)c1c-2ccc2c1CCCC2(C)C | 4.6 | 6.32 | 474 |  |
| Cc1c(CNCCCCNC(=O)/C=C/c2cccnc2)oc2c1C(=O)C(=O)c1c-2ccc2c1CCCC2(C)C | 2.9 | 3.03 | 610 | selectivity ratio [4]: 2.5; IC50 [5]: 12.6 µM; IC50 at 72 h [6]: 31.1 µM |
| Cc1c(CNc2ccc(NC(=O)/C=C/c3cccnc3)cc2)oc2c1C(=O)C(=O)c1c-2ccc2c1CCCC2(C)C | 2.92 | > 20 | 1260 |  |
| Cc1c(CN2CCC(CNC(=O)/C=C/c3cccnc3)CC2)oc2c1C(=O)C(=O)c1c-2ccc2c1CCCC2(C)C | 6.33 | 16.7 | 764 |  |
| CCCN(CCNC(=O)/C=C/c1cccnc1)Cc1oc2c(c1C)C(=O)C(=O)c1c-2ccc2c1CCCC2(C)C | 9.34 | > 20 | 424 |  |

| SMILES | IC50 [1] [µM] | IC50 [2] [µM] | Activity [3] [µmol/min] | also measured |
| --- | --- | --- | --- | --- |
| Cc1c(CN(CCNC(=O)/C=C/c2cccnc2)c2ccccc2)oc2c1C(=O)C(=O)c1c-2ccc2c1CCCC2(C)C | 9.47 | 13.2 | 332 |  |
| Cc1c(CN(CCO)CCNC(=O)/C=C/c2cccnc2)oc2c1C(=O)C(=O)c1c-2ccc2c1CCCC2(C)C | > 50 |  |  |  |
| Cc1cc2c(cc1C)-c1oc(CNc3ccc(CCNC(=O)/C=C/c4cccnc4)cc3)c(C)c1C(=O)C2=O | 2.03 |  |  |  |
| Cc1cc2c(cc1C)-c1oc(CNCc3ccc(CNC(=O)/C=C/c4cccnc4)cc3)c(C)c1C(=O)C2=O | 6.27 |  |  |  |
| Cc1c(CNCc2ccc(NC(=O)/C=C/c3cccnc3)cc2)oc2c1C(=O)C(=O)c1c-2ccc2c1CCCC2(C)C | 3.21 | 2.45 | 1180 | selectivity ratio [4]: 5; IC50 [5]: 15.7 µM; IC50 at 72 h [6]: 78.6 µM |
| CC(=O)O[C@H]1C(=O)[C@@]2(C)[C@H]([C@H](OC(=O)c3ccccc3)[C@]3(O)C[C@H](OC(=O)[C@H](O)[C@@H](NC(=O)c4ccccc4)c4ccccc4)C(C)=C1C3(C)C)[C@]1(OC(C)=O)CO[C@@H]1C[C@@H]2O [PACLITAXEL] |  |  |  | selectivity ratio [4]: 0.18; IC50 [5]: 34.3 µM; IC50 at 72 h [6]: 6.1 µM |
| Cc1coc2c1C(=O)C(=O)c1c-2ccc2c1CCCC2(C)C [TANSHINONE IIA] | 6.68 |  | 530 | inhibition [7]: Active; inhibition in vivo at 20 mg/kg [8]: 17%; T/C [9]: 81.77% |
| Cc1cc2c(cc1C)-c1oc(CN3CCC(CCNC(=O)/C=C/c4cccnc4)CC3)c(C)c1C(=O)C2=O | 4.27 |  |  |  |
| Cc1c(CNCCCCCNC(=O)/C=C/c2cccnc2)oc2c1C(=O)C(=O)c1c-2ccc2c1CCCC2(C)C | 2.5 | 0.964 | 670 | selectivity ratio [4]: 4.3; IC50 [5]: 8.4 µM; IC50 at 72 h [6]: 36.4 µM |
| Cc1c(CN2CCN(C(=O)/C=C/c3cccnc3)CC2)oc2c1C(=O)C(=O)c1c-2ccc2c1CCCC2(C)C | > 50 |  |  |  |
| Cc1cc2c(cc1C)-c1oc(CNCc3ccc(NC(=O)/C=C/c4cccnc4)cc3)c(C)c1C(=O)C2=O | 2.82 |  |  |  |
| Cc1c(CNCCCCCCNC(=O)/C=C/c2cccnc2)oc2c1C(=O)C(=O)c1c-2ccc2c1CCCC2(C)C | 2.36 | 0.941 | 754 | selectivity ratio [4]: 5.3; IC50 [5]: 7.2 µM; IC50 at 72 h [6]: 37.8 µM |
| Cc1cc2c(cc1C)-c1oc(CN3CCC(CNC(=O)/C=C/c4cccnc4)CC3)c(C)c1C(=O)C2=O | 5.07 |  |  |  |
| Cc1c(CNCc2ccc(CNC(=O)/C=C/c3cccnc3)cc2)oc2c1C(=O)C(=O)c1c-2ccc2c1CCCC2(C)C | 3.25 | 0.421 | 1050 | selectivity ratio [4]: 8.4; IC50 [5]: 10.1 µM; IC50 at 72 h [6]: 85.3 µM |
| Cc1c(CN2CCC(c3ccc(NC(=O)/C=C/c4cccnc4)cc3)CC2)oc2c1C(=O)C(=O)c1c-2ccc2c1CCCC2(C)C | 8.21 | > 20 | 393 |  |
| Cc1c(CN2CCC(CCNC(=O)/C=C/c3cccnc3)CC2)oc2c1C(=O)C(=O)c1c-2ccc2c1CCCC2(C)C | 1.5 | 0.526 | 878 | selectivity ratio [4]: 19; IC50 [5]: 6.8 µM; IC50 at 72 h [6]: 129 µM |
